Holding throughout (assay): growth of human tumour cells (NCI), 48 h
Assay [1] deals with HCC-2998 colon.
Assay [2] deals with 786-0 renal.
Assay [3] concerns UACC-62 melanoma.
Assay [4] deals with SK-MEL-28 melanoma.
For assay [5], the system named is TK-10 renal.
Assay [6] relates to HCT-15 colon.
The subject of assay [7] is KM12 colon.
The test system of assay [8] is LOX IMVI melanoma.
In assay [9] the test system is PC-3 prostate.

This is an account of results in PubChem BioAssay (NCI).

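Where inhibition never reached the appropriate level, the endpoint shown equals the highest concentration tested. Otherwise, values were interpolated linearly from a five-concentration, 48-hour dose response in 96-well plates. Abbreviation: GI50, concentration required for 50% inhibition of growth. TGI: concentration producing complete growth inhibition.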

As to `O=C(CN1CCCCC1)N1CCc2c([nH]c3ccccc23)C1c1cccnc1` (stereo not drawn), the TGI in assay [1], in assay [2], in [3], in assay [4], in assay [5] and in assay [6] was greater than 100 µM in each case. Besides, the TGI in assay [7] and in [8] was greater than 100 µM in each case.

Take `CN=NN(C)C(=O)NC`: the TGI in assay [1], in assay [2], in assay [3], in assay [4], in [5] and in assay [6] was greater than 100 µM each time. Also, the TGI in assay [7] and in assay [8] was greater than 100 µM each time.

With `CCOC(=O)C1N(S(=O)(=O)c2ccc(C)cc2)CCC12C(c1ccc(OC)cc1)NC1CCCCC12` (stereo not drawn), the TGI in [1], in assay [2], in assay [3], in [4], in [5] and in assay [6] was greater than 100 µM throughout. The TGI in assay [7] and in [8] was greater than 100 µM throughout.

As to `CC(=O)OCC1OC([S-])C(OC(C)=O)C(OC(C)=O)C1OC(C)=O.CC[PH+](CC)CC.CC[PH+](CC)CC.[Au].[Au]` (stereo not drawn), the GI50 in [1] was 0.801 µM; in assay [2] it was 0.185 µM; in assay [3], 0.119 µM; in [4], 0.167 µM; in assay [5], 0.717 µM; in assay [6], 0.165 µM. Moreover, the GI50 is 1.04 µM in assay [7] and 0.142 µM in assay [8]. Further, the TGI stood at 1.95 µM in assay [1]; 0.401 µM in assay [2]; 0.307 µM in assay [3]; 0.791 µM in assay [4]; 1.69 µM in assay [5]; 0.452 µM in [6]. In addition, the values for the TGI in [7] and in [8] were 2.66 µM and 0.317 µM, respectively.

Turning to `COc1ccccc1NC(=O)C1=C(C)NC(C)=C(C(=O)Nc2ccccc2OC)C1c1ccc([N+](=O)[O-])cc1`, the TGI in [2], in assay [3], in [4], in assay [5], in assay [6] and in assay [7] was greater than 100 µM throughout. This molecule displayed a TGI in assay [8] greater than 100 µM.

As to `O=C(/C=C/c1ccccc1)/C=C/c1ccccc1`, the TGI in assay [1] is greater than 100 µM; in assay [2], 85.5 µM; in [3] it was 87.1 µM; in [4] it was 42.9 µM; in assay [5], greater than 100 µM; in assay [6] it was 70.5 µM. Also, the values for the TGI in assay [7] and in assay [8] were 38.2 µM and 31.7 µM, respectively.

Turning to `O=C1CSC(Cc2nc3ccccc3[nH]2)=N1`, the TGI was 36.3 µM in assay [1]; 32.6 µM in [2]; 37.7 µM in [3]; greater than 76.1 µM in [4]; 48.1 µM in [5]; 37.7 µM in assay [6]. Besides, the results for the TGI in assay [7] and in assay [8] were greater than 64.1 µM and 37.3 µM, respectively.

In the case of `CC1=C(C(=O)Nc2c(C)cccc2C)C(c2ccccc2Cl)C(C(=O)Nc2c(C)cccc2C)=C(C)N1`, the TGI in assay [1], in assay [2], in [4], in [5], in assay [7] and in assay [8] was greater than 100 µM each time.

For the molecule `O=S(O)CCCCSSCc1ccccc1CSSCCCCS(=O)O`, the TGI in [1] is greater than 100 µM; in assay [2] it was greater than 100 µM; in [3] it was 25.3 µM; in assay [4], 31.9 µM; in assay [5] it was greater than 100 µM; in [6], greater than 100 µM. Also, the TGI in assay [7] stood at 59.6 µM; in assay [8], 28.7 µM.

In the case of `CC(C)(C)N1CC2(CCCCC2)C1=O`, the TGI in assay [1], in assay [2], in assay [3], in [4], in assay [5] and in [6] was greater than 100 µM in each case. Further, the TGI in [7] and in assay [8] was greater than 100 µM each time.

Turning to `Cc1cc(C)n(CCNCCn2nc(C)cc2C)n1`, the TGI in assay [1] is greater than 100 µM; in assay [2] it was greater than 100 µM; in assay [3], greater than 100 µM; in [4] it was greater than 100 µM; in assay [5], greater than 100 µM; in assay [6], greater than 1 µM. The TGI in [7] and in assay [8] was greater than 100 µM each time.

For the molecule `CCOC(=O)[C@H](CCCNC(=O)OC(C)(C)C)NCc1ccc(OC)c(OC)c1`, the TGI in assay [1], in assay [2], in [3], in [4], in assay [5] and in assay [7] was greater than 100 µM throughout. The molecule also gave a TGI in [8] greater than 100 µM.

Take `O=C(CSc1nnc(-c2ccccc2NC(=O)C(F)(F)F)c(=O)[nH]1)NC(=O)Nc1ccccc1`: the TGI in [1], in assay [2], in assay [3], in [4], in [5] and in assay [6] was greater than 100 µM each time. The TGI in [7] and in assay [8] was greater than 100 µM in each case.

On to `CCOC(=O)c1[nH]c(COC(C)=O)c(CCCOC(C)=O)c1CCCOC(C)=O`, for which the TGI in assay [1], in [2], in assay [4], in assay [5], in assay [6] and in [7] was greater than 100 µM each time. For the same molecule, in [8], the TGI was greater than 100 µM.

Consider `COC(=O)/C=C/C1C(C(=O)OC)C2(C(=O)OC)CCC1(C(=O)OC)N2` (stereo not drawn), for which the TGI in assay [1], in assay [2], in assay [3], in [5], in [6] and in [7] was greater than 100 µM in each case. In assay [8], the TGI was greater than 100 µM.

In the case of `CCN1C(=O)N(CC)C2C1NC(=S)N2/N=C/C=C/c1cccs1` (stereo not drawn), the GI50 in assay [1] is 0.709 µM; in assay [2] it was 0.615 µM; in [3] it was 0.45 µM; in assay [5], greater than 47.5 µM; in assay [6], 0.307 µM; in assay [9], 0.344 µM. In addition, the GI50 in assay [7] was 0.312 µM; in assay [8], 0.55 µM. Also, the TGI in assay [1], in [2], in [3], in assay [4], in assay [5] and in assay [6] was greater than 100 µM in each case. Also, the TGI in assay [9], in [7] and in assay [8] was greater than 100 µM each time.

On to `O=C(CCC/C(CC(=O)c1ccc(Br)cc1)=N\O)Nc1ccccc1`, for which the TGI in [1], in [2], in assay [3], in [4], in assay [5] and in [7] was greater than 100 µM each time. This molecule had a TGI in assay [8] greater than 100 µM.

On to `CCOC(=O)CCc1c(C)c2c(OC(C)=O)cc(OC(C)=O)cc2oc1=O`, for which the TGI in assay [1], in assay [2], in assay [4], in assay [5] and in [7] was greater than 100 µM each time.

Consider `CCCCCCCCCc1cc(=O)c2c(O)cccc2o1`, for which the TGI in [1], in assay [2], in [3], in [4], in assay [5] and in assay [6] was greater than 100 µM each time. For the same molecule, the TGI in [7] was greater than 100 µM; in [8], 72.3 µM.

As for `N#CC(/C(=N/NC(=O)C(=O)NN)C(=O)NC12CC3CC(CC(C3)C1)C2)c1ccccc1` (stereo not drawn), the TGI in [1], in assay [2], in assay [3], in [4], in [5] and in assay [6] was greater than 100 µM throughout. Further, the TGI in assay [7] and in assay [8] was greater than 100 µM in each case.

For `O=C(/C=C/c1c(O)ccc2ccccc12)c1ccc2ccccc2c1`, the TGI in [1], in assay [2], in [3], in assay [4], in assay [5] and in assay [6] was greater than 100 µM each time. In addition, the TGI in [7] and in assay [8] was greater than 100 µM in each case.

`O=C(CCC(=O)Nc1cccc(Cl)c1)CC(=O)c1ccc(Cl)cc1`: the TGI in assay [1], in [2], in [3], in assay [4], in assay [5] and in assay [6] was greater than 100 µM throughout. The TGI in assay [7] and in assay [8] was greater than 100 µM each time.
